Literature values as cited in US20200101029A1, “METHOD AND SYSTEM FOR PRESERVING COGNITIVE CAPACITY DURING AGING” (priority 2018, published 2020).
Where two headings read alike, the source gives them in different places.

Legend:
[1] = 1 gram per day (500 mg twice daily)
[2] = human cohort study
[3] = murine models
[4] = system: genetically-engineered fly; details: spermidine feeding during all their lives
[5] = system: mice exposed to bleomycin
[6] = system: rat model of Alzheimer's disease

For `O=c1c(O)c(-c2ccc(O)c(O)c2)oc2cc(O)cc(O)c12` [quercetin], which “patients with improvement of symptoms of at least 25 percent” value [1] is on record?
Its value is “more than 67%”.

What about the tolerability [1] of the same compound?
The tolerability was “well tolerated”.

Which results are given for `NCCCCNCCCN` [spermidine]?
safety and tolerability of supplementation [2]: safe and excellently tolerated; safety and tolerability of supplementation [3]: safe and excellently tolerated; aging-associated abnormal protein (excess presynaptic vesicles in olfactory neurons) [4]: prevented; fly memory over aging [4]: preserved over aging; accumulation of damaging protein in the mouse lung ([5]; pre-treatment with spermidine): could reduce or prevent; removal of established scar tissue in the lung ([5]; subsequent dosing, even at higher dose): did not remove it

With Bifidobacterium as the compound, how does the “effect on memory deficit” value [6] read?
Its value is “improving memory deficit”.
